# Reference: ChEMBL document CHEMBL1201862, “PubChem BioAssay data set” (2004)
#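 Exposure lasted 48 hours, with cells grown in 96-well plates and compounds tested at five concentrations. The concentration for 50% growth inhibition is given as GI50.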 Activity calls are given as the source filed them. Rule as the data show it: active = GI50 up to about 1.1 µM and inactive = higher.
# Experiments:
# Assay in all cases: NCI anticancer screen, dose series, 48 h
# [1] = system: 786-0
# [2] = system: A498
# [3] = system: A549
# [4] = system: ACHN
# [5] = system: CAKI-1
# [6] = system: CCRF-CEM
# [7] = system: COLO 205
# [8] = system: DLD-1
# [9] = system: DMS-114
# [10] = system: DMS-273
# [11] = system: EKVX
# [12] = system: HCC 2998
# [13] = system: HCT-116
# [14] = system: HCT-15
# [15] = system: HL-60
# [16] = system: HOP-18
# [17] = system: HOP-62
# [18] = system: HOP-92
# [19] = system: HT-29
# [20] = system: IGROV-1
# [21] = system: K562
# [22] = system: KM-20L2
# [23] = system: KM12
# [24] = system: LOX IMVI
# [25] = system: LXFL 529
# [26] = system: M14
# [27] = system: MOLT-4
# [28] = system: Malme-3M
# [29] = system: NCI-H226
# [30] = system: NCI-H23
# [31] = system: NCI-H460
# [32] = system: NCI-H522
# [33] = system: OVCAR-3
# [34] = system: OVCAR-4
# [35] = system: OVCAR-5
# [36] = system: OVCAR-8
# [37] = system: RPMI-8226
# [38] = system: RXF 393
# [39] = system: SF-268
# [40] = system: SF-295
# [41] = system: SF-539
# [42] = system: SK-MEL-28
# [43] = system: SK-MEL-2
# [44] = system: SK-MEL-5
# [45] = system: SK-OV-3
# [46] = system: SN12C
# [47] = system: SNB-19
# [48] = system: SNB-75
# [49] = system: SNB-78
# [50] = system: SW-620
# [51] = system: TK-10
# [52] = system: U-251
# [53] = system: UACC-257
# [54] = system: UACC-62
# [55] = system: UO-31
compound,measurement,setting,value
COc1cc([C@@H]2c3cc4c(cc3[C@@H](NCc3cccc(F)c3)C3COC(=O)[C@@H]32)OCO4)cc(OC)c1O (stereo not given in full),GI50,[1],2.29 µM (inactive)
same,GI50,[2],2.68 µM (inactive)
same,GI50,[3],1.17 µM (inactive)
same,GI50,[4],1.67 µM (inactive)
same,GI50,[5],6.85 µM (inactive)
same,GI50,[6],1.27 µM (inactive)
same,GI50,[7],12.9 µM (inactive)
same,GI50,[8],9.71 µM (inactive)
same,GI50,[9],6.11 µM (inactive)
same,GI50,[10],2.21 µM (inactive)
same,GI50,[11],12.4 µM (inactive)
same,GI50,[12],9.77 µM (inactive)
same,GI50,[13],4.5 µM (inactive)
same,GI50,[14],3.57 µM
same,GI50,[15],1.19 µM (inactive)
same,GI50,[16],> 65 µM (inactive)
same,GI50,[17],1.51 µM (inactive)
same,GI50,[18],7.53 µM (inactive)
same,GI50,[19],8.61 µM (inactive)
same,GI50,[20],3.18 µM (inactive)
same,GI50,[21],6.49 µM (inactive)
same,GI50,[22],6.64 µM (inactive)
same,GI50,[23],7.01 µM (inactive)
same,GI50,[24],3.58 µM (inactive)
same,GI50,[25],13.4 µM (inactive)
same,GI50,[26],4.9 µM (inactive)
same,GI50,[27],364 nM (active)
same,GI50,[28],4.69 µM (inactive)
same,GI50,[29],1.03 µM (active)
same,GI50,[30],1.95 µM (inactive)
same,GI50,[31],370 nM (active)
same,GI50,[32],6.93 µM (inactive)
same,GI50,[33],12.2 µM (inactive)
same,GI50,[34],30.6 µM (inactive)
same,GI50,[35],13.9 µM (inactive)
same,GI50,[36],6.53 µM (inactive)
same,GI50,[37],2.29 µM (inactive)
same,GI50,[38],8.85 µM (inactive)
same,GI50,[39],5.92 µM (inactive)
same,GI50,[40],2.24 µM (inactive)
same,GI50,[41],2.52 µM (inactive)
same,GI50,[42],8.61 µM (inactive)
same,GI50,[43],12.9 µM (inactive)
same,GI50,[44],7.13 µM (inactive)
same,GI50,[45],4.19 µM (inactive)
same,GI50,[46],2.14 µM (inactive)
same,GI50,[47],2.81 µM (inactive)
same,GI50,[48],1.95 µM (inactive)
same,GI50,[49],15.3 µM (inactive)
same,GI50,[50],5.06 µM (inactive)
same,GI50,[51],9.68 µM (inactive)
same,GI50,[52],1.23 µM (inactive)
same,GI50,[53],10.8 µM (inactive)
same,GI50,[54],2.47 µM (inactive)
same,GI50,[55],5.57 µM (inactive)
